Data published in patent US10172832B2, “Amide derivatives of N-urea substituted amino acids as formyl peptide receptor like-1 (FPRL-1) receptor modulators” (Allergan, Inc., priority 2011, dated 2019).

Biological target: T1, FPRL-1 (Homo sapiens, UniProt P25090)
T1 construct: expressed in transfected cells
T1 sequence (P25090 1-351): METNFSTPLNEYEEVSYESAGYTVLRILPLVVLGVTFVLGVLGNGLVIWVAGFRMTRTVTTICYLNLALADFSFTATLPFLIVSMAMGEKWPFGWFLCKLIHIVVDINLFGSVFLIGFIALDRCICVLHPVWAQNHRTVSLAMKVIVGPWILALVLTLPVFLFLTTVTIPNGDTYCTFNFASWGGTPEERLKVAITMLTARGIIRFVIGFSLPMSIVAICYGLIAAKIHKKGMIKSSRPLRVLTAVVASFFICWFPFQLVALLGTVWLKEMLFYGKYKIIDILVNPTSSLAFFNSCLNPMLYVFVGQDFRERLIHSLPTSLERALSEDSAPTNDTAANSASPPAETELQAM
Test: compound-induced calcium activity on FLIPR Tetra in CHO-Gα16 cells stably expressing FPRL1
Format: cell-based
Details: for FPRL-1 Ga16-CHO (Rel. eff.): relative efficacy; for EC50: tested 0.61 to 10,000 nM, read-out: FPRL-1 Ga16-CHO EC50
Description: CHO-Gα16 cells stably expressing FPRL1 were cultured in (F12, 10% FBS, 1% PSA, 400 μg/ml geneticin and 50 μg/ml hygromycin) and HEK-Gqi5 cells stable expressing FPR1 were cultured in (DMEM high glucose, 10% FBS, 1% PSA, 400 μg/ml geneticin and 50 μg/ml hygromycin). In general, the day before the experiment, 18,000 cells/well were plated in a 384-well clear bottom poly-d-lysine coated plate. The following day the screening compound-induced calcium activity was assayed on the FLIPR^Tetra. The drug plates were prepared in 384-well microplates using the EP3 and the MultiPROBE robotic liquid handling systems. Compounds were tested at concentrations ranging from 0.61 to 10,000 nM. Results are expressed as EC50 (nM) and efficacy values.

SMILES	FPRL-1 Ga16-CHO (Rel. eff.)	EC50 [nM]
CC(C)C[C@H](NC(=O)Nc1ccc(Br)cc1)C(=O)N[C@@H](C)C(N)=O [Compound 45, (2S)-N-[(1S)-2-amino-1-methyl-2-oxoethyl]-2-{[(4-bromophenyl)carbamoyl]amino}-4-methylpentanamide]	(0.96)	24
CC(C)C[C@H](NC(=O)Nc1ccc(Br)cc1)C(=O)N[C@H](C(N)=O)C(C)C [Compound 46]	(1.03)	1.3
CC(C)C[C@H](NC(=O)Nc1ccc(Br)cc1)C(=O)NCC(O)CO (stereo partly drawn) [Compound 47, (2S)-2-{[(4-bromophenyl)carbamoyl]amino}-N-(2,3-dihydroxypropyl)-4-methylpentanamide]		5.1
CC(C)C[C@H](NC(=O)Nc1ccc(Br)cc1)C(=O)NCC(C)(C)O [Compound 47, (2S)-2-{[(4-bromophenyl)carbamoyl]amino}-N-(2-hydroxy-2-methylpropyl)-4-methylpentanamide]		2.1
CC(C)C[C@H](NC(=O)Nc1ccc(Br)cc1)C(=O)NC(CO)CO [Compound 48, (2S)-2-{[(4-bromophenyl)carbamoyl]amino}-N-[2-hydroxy-1-(hydroxymethyl)ethyl]-4-methylpentanamide]		7.4
CC(C)C[C@H](NC(=O)Nc1ccc(Br)cc1)C(=O)N[C@H](C)CO [Compound 48, (2S)-2-{[(4-bromophenyl)carbamoyl]amino}-N-[(1R)-2-hydroxy-1-methylethyl]-4-methylpentanamide]		3
CCC[C@H](NC(=O)[C@H](CC(C)C)NC(=O)Nc1ccc(Br)cc1)C(=O)OC(C)(C)C [Compound 49]	(1.06)	13
CC(C)C[C@H](NC(=O)Nc1ccc(Br)cc1)C(=O)N[C@H](C(=O)OC(C)(C)C)c1ccccc1 [Compound 50, tert-butyl(2S)-{[(2S)-2-{[(4-bromophenyl)carbamoyl]amino}-4-methylpentanoyl]amino}(phenyl)ethanoate]	(1.02)	122
CCC[C@H](NC(=O)[C@H](CC(C)C)NC(=O)Nc1ccc(Br)cc1)C(=O)O [Compound 51, (2S)-2-{[(2S)-2-{[(4-bromophenyl)carbamoyl]amino}-4-methylpentanoyl]amino}pentanoic acid]	(0.89)	1
CC(C)C[C@H](NC(=O)Nc1ccc(Br)cc1)C(=O)N[C@H](C(=O)O)c1ccccc1 [Compound 52, (2S)-{[(2S)-2-{[(4-bromophenyl)carbamoyl]amino}-4-methylpentanoyl]amino}(phenyl)ethanoic acid]	(1.08)	9.1
CCC[C@H](NC(=O)[C@H](CC(C)C)NC(=O)Nc1ccc(Br)cc1)C(N)=O [Compound 53, (2S)-N-[(2S)-1-amino-1-oxopentan-2-yl]-2-{[(4-bromophenyl)carbamoyl]amino}-4-methylpentanamide]	(1.03)	6.4
CC(C)C[C@H](NC(=O)Nc1ccc(Br)cc1)C(=O)N[C@H](C(N)=O)c1ccccc1 [Compound 54, (2S)-N-[(1S)-2-amino-2-oxo-1-phenylethyl]-2-{[(4-bromophenyl)carbamoyl]amino}-4-methylpentanamide]	(0.99)	84
CC(C)CC(C)(NC(=O)Nc1ccc(Br)cc1)C(=O)NCC(=O)OC(C)(C)C (stereo not shown) [Compound 55, tert-butyl {[2-{[(4-bromophenyl)carbamoyl]amino}-2,4-dimethylpentanoyl]amino}acetate]	(0.98)	58
CC(C)CC(C)(NC(=O)Nc1ccc(Br)cc1)C(=O)NCC(=O)O (stereo not shown) [Compound 56, {[2-{[(4-bromophenyl)carbamoyl]amino}-2,4-dimethylpentanoyl]amino}acetic acid]	(0.98)	22
CCC(CC)(NC(=O)Nc1ccc(Br)cc1)C(=O)NCC(=O)OC(C)(C)C [Compound 57, tert-butyl {[2-{[(4-bromophenyl)carbamoyl]amino}-2-ethylbutanoyl]amino}acetate]	(1.03)	31
CCC(CC)(NC(=O)Nc1ccc(Br)cc1)C(=O)NCC(=O)O [Compound 58, {[2-{[(4-bromophenyl)carbamoyl]amino}-2-ethylbutanoyl]amino}acetic acid]	(1.04)	19

SMILES	FPRL-1 Ga16-CHO (Rel. eff.)	EC50 [nM]
CC(C)(C)OC(=O)CNC(=O)C(C)(C)NC(=O)Nc1ccc(Br)cc1 [Compound 59, tert-butyl {[2-{[(4-bromophenyl)carbamoyl]amino}-2-methylpropanoyl]amino}acetate]	(1.02)	114
CC(C)(NC(=O)Nc1ccc(Br)cc1)C(=O)NCC(=O)O [Compound 60, {[2-{[(4-bromophenyl)carbamoyl]amino}-2-methylpropanoyl]amino}acetic acid]	(0.99)	480
CC(C)C[C@H](NC(=O)Nc1ccc(Br)cc1)C(=O)NCC(=O)N(C)C [Compound 61, (2S)-2-{[(4-bromophenyl)carbamoyl]amino}-N-[2-(dimethylamino)-2-oxoethyl]-4-methylpentanamide]	(0.90)	1.4
CC(C)C[C@H](NC(=O)Nc1ccc(C(F)(F)F)cc1)C(=O)NCC(=O)OC(C)(C)C [Compound 62, tert-butyl {[(2S)-4-methyl-2-({[4-(trifluoromethyl)phenyl]carbamoyl}amino)pentanoyl]amino}acetate]	(0.81)	309
CC(C)C[C@H](NC(=O)Nc1ccc(C(F)(F)F)cc1)C(=O)NCC(=O)O [Compound 63, {[(2S)-4-methyl-2-({[4-(trifluoromethyl)phenyl]carbamoyl}amino)pentanoyl]amino}acetic acid]	(0.99)	1.8
CC[C@@H](C)[C@@H](NC(=O)Nc1ccc(Br)cc1)C(=O)NCC(=O)OC(C)(C)C [Compound 64, tert-butyl {[(2R,3R)-2-{[(4-bromophenyl)carbamoyl]amino}-3-methylpentanoyl]amino}acetate]	(0.44)	3970
CC[C@@H](C)[C@@H](NC(=O)Nc1ccc(Br)cc1)C(=O)NCC(=O)O [Compound 65, {[(2R,3R)-2-{[(4-bromophenyl)carbamoyl]amino}-3-methylpentanoyl]amino}acetic acid]	(0.45)	19300
CC(C)C[C@@H](NC(=O)Nc1ccc(Br)cc1)C(=O)NCC(=O)OC(C)(C)C [Compound 66, tert-butyl {[(2R)-2-{[(4-bromophenyl)carbamoyl]amino}-4-methylpentanoyl]amino}acetate]	(0.92)	3660
CSc1ccc(NC(=O)N[C@@H](CC(C)C)C(=O)NCC(=O)OC(C)(C)C)cc1 [Compound 68, tert-butyl {[(2S)-4-methyl-2-({[4-(methylsulfanyl)phenyl]carbamoyl}amino)pentanoyl]amino}acetate]	(0.98)	116
CC(C)C[C@H](NC(=O)Nc1ccc(C(F)(F)F)cc1)C(=O)NC(C)(C)C(=O)O [Compound 69, 2-methyl-2-{[(2S)-4-methyl-2-({[4-(trifluoromethyl)phenyl]carbamoyl}amino)pentanoyl]amino}propanoic acid]	(0.92)	2.3
CSc1ccc(NC(=O)N[C@@H](CC(C)C)C(=O)NCC(=O)O)cc1 [Compound 70, {[(2S)-4-methyl-2-({[4-(methylsulfanyl)phenyl]carbamoyl}amino)pentanoyl]amino}acetic acid]	(1.05)	2.95
CC(C)C[C@H](NC(=O)Nc1ccc(SC(F)(F)F)cc1)C(=O)NCC(=O)OC(C)(C)C [Compound 71, tert-butyl ({(2S)-4-methyl-2-[({4-[(trifluoromethyl)sulfanyl]phenyl}carbamoyl)amino]pentanoyl}amino)acetate]	(0.78)	3100
CC(C)C[C@H](NC(=O)Nc1ccc(SC(F)(F)F)cc1)C(=O)NCC(=O)O [Compound 72, ({(2S)-4-methyl-2-[({4-[(trifluoromethyl)sulfanyl]phenyl}carbamoyl)amino]pentanoyl}amino)acetic acid]	(1.07)	560
CC(C)C[C@H](NC(=O)Nc1ccc(Br)cc1)C(=O)NC(C)(C)C(=O)OC(C)(C)C [Compound 73, tert-butyl 2-{[(2S)-2-{[(4-bromophenyl)carbamoyl]amino}-4-methylpentanoyl]amino}-2-methylpropanoate]	(1.16)	133
CC(C)C[C@H](NC(=O)Nc1ccc(Br)cc1)C(=O)NC(C)(C)C(=O)O [Compound 74, 2-{[(2S)-2-{[(4-bromophenyl)carbamoyl]amino}-4-methylpentanoyl]amino}-2-methylpropanoic acid]	(0.96)	1
